Laboratory results: patent US20240139125A1 (INDUSTRIAL COOPERATION FOUNDATION JEONBUK NATIONAL …, priority 2020, published 2024)
Entries after “also recorded” stand apart in the source; their conditions may differ.

Assays:
BI-1 (TMBIM6) = experiment: TMBIM6-GCaMP3 fluorescence, calcium released through BI-1; format: cell-based; details: HT1080 cells expressing TMBIM6-GCaMP3, BIA 10 μM, over time
[1] = tested on: tumors derived from MDA-MB-231 cells; experiment: Xenograft in nude mice; format: in vivo; details: MDA-MB-231 xenograft, 1 mg/kg BIA, 5 days a week, 25 days
Experimental: FIG. 67C and FIG. 67D show the volume and weight of tumors derived from MDA-MB-231 cells injected into a nude mouse treated with a vehicle or 1 mg/kg BIA. (n=5 mice for each group). Data were expressed as mean±SD. ***p<0.001, ****p<0.0001, followed by binary ANOVA, followed by Bonferroni's post hoc test (C) or two-tailed unpaired t-test (B).
Mice purchased 20-25 g of BALBc/Nude and conducted experiments after 1 week of preliminary breeding to adapt to the laboratory environment. This experiment was approved by the Animal Experiment Ethics Committee of Chonbuk National University (CBNU 201 5-064, CBNU 2016-56) and was carried out according to standard work instructions, and the conditions in the breeding room were kept constant temperature and relative humidity, a 12-hour contrast cycle, and water and feed were freely consumed. Experimental animals are transplanted subcutaneously with 5×10^6 cells per mouse using HT1080 cell line and MDA-MB-231 cell line, and after 7-10 days, mice forming tumor sizes of 100 mm^3 are randomly divided into control and experimental groups. The control group is injected with saline (including 10% DMSO) and the experimental group is injected with 1 mg/kg (10% DMSO) into the abdomen. The drug is given 5 days a week, and repeated for 4 weeks. […] The tumor size was measured with a caliper and calculated using the following formula: […]

BAL inflammatory cells = experiment: Aspergillus-infected asthmatic mouse model, BAL cells and lung histology; format: in vivo; details: asthma-inducing group; BIA 0.1 mg/kg and 0.01 mg/kg, IC87114 1 mg/kg, intratracheal
Text: FIG. 80A and FIG. 80B show mice that were infected with aspergillus with or without BIA, or IC87114, fixing the tissue to 4% formalin, injecting paraffin to make blocks, and then cutting into 4 μm thick to react to buffer and performing hematoxylin-eosin staining. The observation result (A) and the observation result (B) by PAS staining are shown.
The result is quantified by counting the total number of cells of living BAL fluid, excluding dead cells stained in trypan blue.
A. fumigatus-induced allergic pulmonary inflammation To establish the model, mice were treated with 10 μg of A. fumigatus crude antigen extract (Greer Laboratories, Cat # XPM3D3A4, Lenoir, NC, USA) with fungal substance inactivated. 0.2 ml of incomplete Freund's adjuvant (Sigma-Aldrich, Cat # F5506-6X) in regular saline It was dissolved and mixed, and half of the preparation was deposited in the peritoneal cavity and the rest was delivered subcutaneously. After 2 weeks, mice received 20 μg of A. fumigatus antigen dissolved in normal saline through the intranasal route, after an intranasal attack After 4 days, 20 μg of A. Fumigatus antigen dissolved in normal saline was treated via the endotracheal route. Control mice were administered only saline at the same time point in time through the same route and treated with the same number of conidia. […]

SMILES: Nc1ccccc1C(=O)/C=C/c1cccc([N+](=O)[O-])c1 [BIA, 2E-1-2-Aminophenyl-3-3-nitrophenyl-2-propen-1-one]
- BI-1-GCaMP3 fluorescence intensity (BI-1 (TMBIM6)): decreasing pattern; also recorded: decreased over time
- tumor growth [1]: significantly impaired
- all BAL inflammatory cells (BAL inflammatory cells): inhibited
